Laboratory results: article PMC4109680, “Identification and Preclinical Pharmacology of the γ-Secretase Modulator BMS-869780” (International Journal of Alzheimer's Disease, 2014)

Tested on: Aβ1-40 (MEF M146V)
Assay: Aβ1-40 ELISA in MEF dKO cultures cotransfected with APP-CTF and human presenilin-1 M146V allele
Type: cell-based
Description: H4-APPsw cell cultures were maintained on Dulbecco's modified Eagle's medium (DMEM) supplemented with L-glutamine (2 mM), fetal bovine serum (10%), and G418 (100 μg/mL). […] Aβ1-42 and Aβ1-40 assays, and Notch inhibition assays, were carried out as described previously. Mouse embryonic fibroblasts deficient in PS1 and PS2 (MEF dKO) were passaged twice per week in DMEM/F-12 medium, consisting of a 1 : 1 mixture of DMEM and F-12 nutrient mixture supplemented with 10% fetal bovine serum, penicillin, and streptomycin. For expression of human presenilin-1 in MEF dKO cells, the full length human presenilin-1 cDNA open reading frame was cloned between the BamHI and XhoI sites of the vector pcDNA5/FRT (Invitrogen), placing presenilin-1 expression under the control of the CMV promoter. […]
IC50 determinations for Aβ1-42 and Aβ1-40 in H4-APPsw cultures in 384-well format were determined using homogeneous time-resolved fluorescence immunoassays as previously described. […] In other experiments using H4-APPsw cultures, Aβ was quantified by ELISA; for Aβ1-42 the combination of monoclonal antibodies was 26D6 and 565-HRP; for Aβ1-40 it was TSD and 26D6-HRP, and for Aβ1-x it was 4G8 and 26D6-HRP. […] For Aβ in transiently transfected PS1/PS2 dKO fibroblasts, Aβ1-42 was quantified using an ELISA kit (WACO), and Aβ1-40 was quantified by ELISA as described above for H4-APPsw cultures. […]

Q: For `COc1cc(Nc2nc3n(n2)CCCC[C@H]3c2ccc(F)cc2)ccc1-n1cnc(Cl)c1` [BMS-869780], which IC50 (Homo sapiens, presenilin-1 M146V allele) is on record?
A: Its IC50 is 34 nM.

Q: What about the “Aβ1-40 IC50 shift in M146V allele relative to wild type presenilin” value (MEF cultures) of the same molecule?
A: The value was “ca. 3 fold”.
